Measurements from publication PMC4841536, “Characterization of the Anti-HCV Activities of the New Cyclophilin Inhibitor STG-175” (PLoS ONE, 2016).

What was measured:
[1] = alamarBlue cytotoxicity (CC50), GT1b replicon cell line; conditions: human
Protocol: (§1) The anti-HCV activity of STG-175 was conducted using a panel of luciferase reporter replicon cell lines including GT1a, GT1b, GT2a, GT3a and GT4a as we described previously. The GT1a subgenomic renilla luciferase reporter replicon H77 RLucP (7) was supplied by Dr. Delaney. The GT1b subgenomic firefly luciferase reporter replicon pFK-I389/NS3-3’ [29] was supplied by Dr. Bartenschlager. The GT1B subgenomic NS3, NS5A and NS5B mutants were created via homologous recombination using the In-Fusion HD Cloning kit (Clontech) as we described previously. The GT2a genomic luciferase reporter replicon Luc-Neo-JFH-1 was generated as previously. The plasmid pFK-Luc-JFH1 was supplied from Drs. […] The CellTiter-Fluor™ Cell Viability Assay is a non-lytic fluorescence assay, which measures the number of live cells. […] Luciferase activity was determined using the Luciferase Assay System (Promega) in a Berthold luminometer. […] Viable cells continuously convert resazurin to resorufin, increasing the overall fluorescence and color of the media surrounding cells.
(§2) Fig 2 Anti-HCV activities of STG-175 among GTs. […] Luciferase activity was determined using the Luciferase Assay System in a Berthold luminometer. […] Data are expressed as mean of relative light units and calculated EC50s are presented. […]

[2] = alamarBlue cytotoxicity (CC50), GT2a replicon cell line; conditions: human
Protocol: as §1, §2

[3] = test system: GT2a replicon cell line; test: as above; conditions: GT2a replicon cell line
Protocol: as §1, §2

[4] = test system: NS3i-resistant R155Q/A156T NS3 Con1 GT1b replicon; test: Electroporated Con1 RNA replication in Huh7.5.1 cells (RT-qPCR), R155Q/A156T NS3; format: cell-based; conditions: Hepatitis C virus, Huh-7.5.1, 192 h, read-out: EC50 R155Q/A156T NS3
Text: The GT1b subgenomic firefly luciferase reporter replicon pFK-I389/NS3–3 was provided by R. Bartenschlager. The GT1B subgenomic NS3, NS5A and NS5B mutants were created via homologous recombination using the In-Fusion HD Cloning kit (Clontech) as we described previously. […] The in vitro transcription of wild-type and mutant Con1 RNA was accomplished using the T7 MEGAscript kit (Ambion) by following the manufacturer’s instructions. In vitro-transcribed RNAs were introduced into Huh7.5.1 cells by electroporation. Trypsinized cells were washed twice and resuspended in phosphate-buffered saline (PBS) (calcium-free and magnesium-free) at 1x 10^7 cells per ml. Ten micrograms of RNA for each mutant was mixed with 0.4 mL of cells in a 4-mm cuvette, and a Bio-Rad Gene Pulser system was used to deliver a single pulse at 0.27 kV, 100 ohms, and 960 μF. […] RNA transfection efficiency and HCV subgenomic replication were assessed by reverse transcription-quantitative PCR (RT-qPCR) and presented as genome equivalents (GE) per microgram of total RNA as described previously. We measured by RT-qPCR the replication of wild-type, STG-175-, NS5Ai-, NS3i- and NS5Bi-resistant mutants in the presence of increasing concentrations of SGT-175, daclatasvir, telaprevir, boceprevir and sofosbuvir over a period of 8 days.
Fig 5 Cross-resistance analyses. […] Data are expressed as log of GE/μg of total RNA. […]

For `CC=CCC(C)C(O)C1C(=O)NC(CC)C(=O)N(C)C(CSCCCCO)C(=O)N(C)C(CC(C)(C)O)C(=O)NC(C(C)C)C(=O)N(C)C(CC(C)C)C(=O)NC(C)C(=O)NC(C)C(=O)N(C)C(CC(C)C)C(=O)N(C)C(CC(C)C)C(=O)N(C)C(C(C)C)C(=O)N1C` (stereo not shown) [STG-175], the CC50 at 72 h [1] was > 10 µM, the CC50 at 72 h [2] was > 10 µM and the “cell viability toward increasing doses (alamarBlue)” value [3] was “lack of cellular cytotoxicity”. It also gave an EC50 [4] of 13.6 nM.
